Each block holds one compound with its values, some of them ahead of it.
Tests used:
[1] = Storage stability of crystalline forms at 40° C./75% RH (6 months stability results); type: physicochemical; settings: for Impurity Profile (i) Tetrahydro benzazepine / Impurity Profile (ii) (S)-methyl amino Compd. / Impurity Profile (iii) Benzocylco butane Compd. / Impurity Profile (iv) Dimer Impurity: BDL = Below Detection Limit
Excerpt: In another general aspect, the storage stable crystalline Form-II of ivabradine hydrochloride may be characterized by at least 6 months stability results as outline in Table-III which is representative for one of the batch.
In another general aspect, the storage stable crystalline Form III of ivabradine hydrochloride may be characterized by at least 6 months stability results as outline in Table-IV which is representative for one of the batch.

[2] = Storage stability of crystalline forms at 25° C./60% RH; type: physicochemical; settings: storage for 6 months at 25° C. and a relative humidity of 60%
[3] = 1 Month, 40° C. ± 2° C./75% ± 5% RH
[4] = 1 Month, 40° C. ± 2° C./75% ± 5% RH, listed as Form-II, hydrochloride
[5] = 2 Months, 40° C. ± 2° C./75% ± 5% RH
[6] = 2 Months, 40° C. ± 2° C./75% ± 5% RH, listed as Form-II, hydrochloride
[7] = 3 Months, 40° C. ± 2° C./75% ± 5% RH
[8] = 3 Months, 40° C. ± 2° C./75% ± 5% RH, listed as Form-II, hydrochloride
[9] = 6 Months, 40° C. ± 2° C./75% ± 5% RH
[10] = Initial, specification Not more than 0.15
[11] = 1 Month, 40° C. ± 2° C./75% ± 5% RH, listed as Form-III, hydrochloride
[12] = 2 Months, 40° C. ± 2° C./75% ± 5% RH, listed as Form-III, hydrochloride
[13] = 3 Months, 40° C. ± 2° C./75% ± 5% RH, listed as Form-III, hydrochloride

- Description [1, 3]: White
- Water by KF (% w/w) [1, 3]: 2.0 % w/w
- Impurity Profile (i) Tetrahydro benzazepine [1, 3]: BDL
- Impurity Profile (ii) (S)-methyl amino Compd. [1, 3]: BDL
- Impurity Profile (iii) Benzocylco butane Compd. [1, 3]: BDL
- Impurity Profile (iv) Dimer Impurity [1, 3]: BDL
- Impurity Profile (v) Single Ind. [1, 4]: 0.02
- Impurity Profile (vi) Total Imp. [1, 4]: 0.05
- Polymorph [1, 4]: Form-II
- Description [1, 5]: White
- Water by KF (% w/w) [1, 5]: 2.0 % w/w
- Impurity Profile (i) Tetrahydro benzazepine [1, 5]: BDL
- Impurity Profile (ii) (S)-methyl amino Compd. [1, 5]: BDL
- Impurity Profile (iii) Benzocylco butane Compd. [1, 5]: BDL
- Impurity Profile (iv) Dimer Impurity [1, 5]: BDL
- Impurity Profile (v) Single Ind. [1, 6]: 0.02
- Impurity Profile (vi) Total Imp. [1, 6]: 0.03
- Polymorph [1, 6]: Form-II
- Description [1, 7]: White
- Impurity Profile (vi) Total Imp. [1, 7]: 0.08
- Water by KF (% w/w) [1, 7]: 2.1 % w/w
- Impurity Profile (i) Tetrahydro benzazepine [1, 7]: BDL
- Impurity Profile (ii) (S)-methyl amino Compd. [1, 7]: BDL
- Impurity Profile (iii) Benzocylco butane Compd. [1, 7]: BDL
- Impurity Profile (iv) Dimer Impurity [1, 7]: BDL
- Impurity Profile (v) Single Ind. [1, 8]: 0.03
- Polymorph [1, 8]: Form-II
- Description [1, 9]: White
- Impurity Profile (v) Single Ind. [1, 9]: 0.03
- Impurity Profile (vi) Total Imp. [1, 9]: 0.09
- Water by KF (% w/w) [1, 9]: 2.0 % w/w
- Impurity Profile (i) Tetrahydro benzazepine [1, 9]: BDL
- Impurity Profile (ii) (S)-methyl amino Compd. [1, 9]: BDL
- Impurity Profile (iii) Benzocylco butane Compd. [1, 9]: BDL
- Impurity Profile (iv) Dimer Impurity [1, 9]: BDL
- Polymorph ([1]; 6 Months, 40° C. ± 2° C./75% ± 5% RH, listed as Form-II, hydrochloride): Form-II
- Impurity Profile (i) Tetrahydro benzazepine [1, 10]: BDL
- Impurity Profile (ii) (S)-methyl amino Compd. [1, 10]: BDL
- Impurity Profile (iii) Benzocylco butane Compd. [1, 10]: BDL
- Impurity Profile (iv) Dimer Impurity [1, 10]: BDL
- Polymorph ([1]; Initial, listed as Form-II, hydrochloride): Form-II
- Impurity Profile (v) Single Ind. [1, 10]: 0.04
- Impurity Profile (vi) Total Imp. [1, 10]: 0.09
- Water by KF (% w/w) ([1]; Initial, specification Not more than 4.0%): 2.1 % w/w
- Description ([1]; Initial, specification White to slightly yellow powder): White
- quantity of crystalline β, δ, γ, or amorphous forms after storage ([1]; storage for 6 months at 40° C. and a relative humidity of 75%): no detectable quantity
- quantity of crystalline β, δ, γ, or amorphous forms after storage [2]: no detectable quantity
Structure (SMILES): COc1cc2c(cc1OC)CC(=O)N(CCCN(C)C[C@H]1Cc3cc(OC)c(OC)cc31)CC2.Cl [Form II, 3-{3-{{[(7S)-3,4-dimethoxybicyclo[4.2.0]octa-1,3,5-trien-7-yl]methyl}(methyl)amino}-propyl}-7,8-dimethoxy-1,3,4,5-tetrahydro-2H-3-benzazepin-2-one hydrochloride]

- Impurity Profile (v) Single Ind. [1, 11]: 0.04
- Impurity Profile (vi) Total Imp. [1, 11]: 0.07
- Polymorph [1, 11]: Form-III
- Impurity Profile (v) Single Ind. [1, 12]: 0.03
- Impurity Profile (vi) Total Imp. [1, 12]: 0.06
- Polymorph [1, 12]: Form-III
- Impurity Profile (v) Single Ind. [1, 13]: 0.04
- Polymorph [1, 13]: Form-III
- Polymorph ([1]; 6 Months, 40° C. ± 2° C./75% ± 5% RH, listed as Form-III, hydrochloride): Form-III
- Polymorph ([1]; Initial, listed as Form-III, hydrochloride): Form-III
Structure (SMILES): COc1cc2c(cc1OC)CC(=O)N(CCCN(C)C[C@H]1Cc3cc(OC)c(OC)cc31)CC2.Cl [Form III, 3-{3-{{[(7S)-3,4-dimethoxybicyclo[4.2.0]octa-1,3,5-trien-7-yl]methyl}(methyl)amino}-propyl}-7,8-dimethoxy-1,3,4,5-tetrahydro-2H-3-benzazepin-2-one hydrochloride]

Source: patent US9382209B2, “Polymorphic forms of ivabradine hydrochloride” (CADILA HEALTHCARE LIMITED, priority 2011, dated 2016)
